Experimental data as given in the supplement of paper PMC13380429.

Key:
Conditions in all cases: 72 h
Caco-2 [1] = experiment: cell viability relative to DMSO; higher = less toxic
Vero E6 [2] = experiment: as above
Calu-3 [3] = experiment: as above
HepG2 [4] = experiment: as above
U2OS [5] = experiment: as above
Caco-2 [6] = experiment: relative viability EC50 (midpoint between 100% and the lowest measured viability); higher = less toxic
Vero E6 [7] = experiment: as above
Calu-3 [8] = experiment: as above
HepG2 [9] = experiment: as above
U2OS [10] = experiment: as above
Caco-2 [11] = experiment: drug sensitivity score (DSS) for viability; higher = more toxic; extreme values may be limits of the assay
Vero E6 [12] = experiment: as above
Calu-3 [13] = experiment: as above
HepG2 [14] = experiment: as above
U2OS [15] = experiment: as above

Structure (SMILES)	cell viability (Caco-2 [1]; 1 nM) [%]	cell viability (Caco-2 [1]; 10 nM) [%]	cell viability (Caco-2 [1]; 100 nM) [%]	cell viability (Caco-2 [1]; 1000 nM) [%]	cell viability (Caco-2 [1]; 10000 nM) [%]	cell viability (Vero E6 [2]; 1 nM) [%]	cell viability (Vero E6 [2]; 10 nM) [%]	cell viability (Vero E6 [2]; 100 nM) [%]	cell viability (Vero E6 [2]; 1000 nM) [%]	cell viability (Vero E6 [2]; 10000 nM) [%]	cell viability (Calu-3 [3]; 1 nM) [%]	cell viability (Calu-3 [3]; 10 nM) [%]	cell viability (Calu-3 [3]; 100 nM) [%]	cell viability (Calu-3 [3]; 1000 nM) [%]	cell viability (Calu-3 [3]; 10000 nM) [%]	cell viability (HepG2 [4]; 1 nM) [%]	cell viability (HepG2 [4]; 10 nM) [%]	cell viability (HepG2 [4]; 100 nM) [%]	cell viability (HepG2 [4]; 1000 nM) [%]	cell viability (HepG2 [4]; 10000 nM) [%]	cell viability (U2OS [5]; 1 nM) [%]	cell viability (U2OS [5]; 10 nM) [%]	cell viability (U2OS [5]; 100 nM) [%]	cell viability (U2OS [5]; 1000 nM) [%]	cell viability (U2OS [5]; 10000 nM) [%]	relative viability EC50 (Caco-2 [6]) [µM]	relative viability EC50 (Vero E6 [7]) [µM]	relative viability EC50 (Calu-3 [8]) [µM]	relative viability EC50 (HepG2 [9]) [µM]	relative viability EC50 (U2OS [10]) [µM]	drug sensitivity score (Caco-2 [11])	drug sensitivity score (Vero E6 [12])	drug sensitivity score (Calu-3 [13])	drug sensitivity score (HepG2 [14])	drug sensitivity score (U2OS [15])
COc1ccc2c(c1)c(C1=C(c3c[nH]c4ccccc34)C(=O)NC1=O)cn2CCCN(C)C [go-6983]	110	95.6	108	101	85.7	108	104	97.7	103	75.3	98.9	85.1	99	83.9	84	105	94.7	87.1	105	31.7	94.4	92.2	104	91.4	79.6	> 10	> 10	> 10	3.52	> 10	0.2	0.7	1.2	3.4	1.6
CCc1nc2c(C)nc(C)cc2n1-c1ccc(CCNC(=O)NS(=O)(=O)c2ccc(C)cc2)cc1 [grapiprant]	101	90.4	101	102	93.8	101	97.7	97.3	95.6	96.6	102	89.9	103	96.1	104	103	101	104	99.2	97.6	98	96.3	97.7	99.3	96.8	> 10	> 10	> 10	> 10	> 10	0	0	0	0	0
CN(C)CCc1ccc(O)cc1 [hordenine]	96.2	102	100	102	95.8	106	103	101	99.1	103	91.9	93.6	89.7	101	101	104	110	103	87.1	100	94.6	96.1	92.7	102	97.8	> 10	> 10	> 10	> 10	> 10	0	0	0	0	0
Cc1cc(/C=C2\SC(=O)N(c3ccccc3)C2=O)c(C)n1-c1cccnc1 [iCRT-14]	107	107	102	96.8	89	105	102	96.8	99.8	89.8	101	88.7	100	104	107	96.7	102	93.4	94.3	76.2	97	96.8	102	95.7	96.4	> 10	> 10	> 10	> 10	> 10	0.1	0	0	1.4	0
N=C(N)NCCC[C@@H](N)C(=O)N[C@@H](CCCNC(=N)N)C(=O)N1CCC[C@H]1C(=O)N1C[C@H](O)C[C@H]1C(=O)NCC(=O)N[C@@H](Cc1cccs1)C(=O)N[C@@H](CO)C(=O)N1Cc2ccccc2C[C@@H]1C(=O)N1[C@H](C(=O)N[C@@H](CCCNC(=N)N)C(=O)O)C[C@@H]2CCCC[C@@H]21 [icatibant-acetate]	96	100	90	91.4	103	99	97.9	101	101	101	107	92.8	98	98.6	104	91	93.3	84.7	102	102	102	98.8	103	98.1	101	> 10	> 10	> 10	> 10	> 10	0	0	0	0	0
